Among the data in a melting point compilation (Tetko et al.; mined from patent text by program, amines drawn as free bases though some values may be those of a salt) are melting point values, retold here.

For orientation: melting point means the temperature, or range, at which the solid turns liquid.

`CC(C)CCN1C(=O)C(NC(=O)Nc2ccccc2)C(=O)Nc2ccccc21` (stereo not given) had a melting point of 249 to 250 °C. The figure for `C[C@H]1CCCN(C(=O)[C@@H]2Cc3ccccc3N2c2ccc(=S)n(C)n2)C1` is 249 to 252 °C.

Molecule `COc1ccc(CSc2nc(O)cc(C(F)(F)F)n2)cc1` had a melting point of 169 to 170 °C. On to `COc1ccc(O)c(C(=O)c2oc3ccc(Cl)cc3c2N)c1`, for which the melting point lay in the range of 202 to 205 °C. On to `CCCCCc1c(C=O)sc2cc(OC)ccc12`, for which the melting point was 44 to 46 °C. The figure for `ClCc1cn(C(c2ccccc2)(c2ccccc2)c2ccccc2)cn1` is 88 to 91 °C; for `C=CCc1cc(O)c(CC=C)c(C=O)c1O` it is 102 °C.

Regarding `CCOC(=O)Cc1ccc(NC(=O)C(NS(=O)(=O)c2ccc(Cl)cc2)C(C)C)cc1` (racemic), the melting point is 100 to 102 °C. For `CC(=O)CCN(Cc1ccccc1)Cc1ccccc1`, the melting point is 58 to 59 °C.

Molecule `COc1cc2c(c(Cl)c1Cl)C(=O)C(CCOC(C)=O)=C2` returned a melting point of 134 to 136 °C. `COC(=O)c1ccc(CSC)nc1C1=NC(C)(C(C)C)C(=O)N1` (stereo not given) displayed a melting point of 114 to 115 °C.

`Brc1ccc(CSc2nc(-c3ccncc3)ns2)cc1` came in with a melting point of 132 °C. The figure for `COc1ccc2cc3ccccc3cc2c1` is 182 to 184 °C; for `CN(C)C(=S)Oc1ccc(Br)cc1C=O` it is 141 to 143 °C. The figure for `Cc1cc(O)cc(C)c1N=Cc1ccc(O)cc1O` is 193 to 197 °C; for `Cc1ccc(S(=O)(=O)Nc2ccccc2C(=O)C2CC2)cc1` it is 92 to 100 °C.

In turn, `Cc1c(Cc2cccc(C(F)(F)F)c2)sc2c(-c3cccc(C(=O)NCCC#N)c3)cccc12` came in with a melting point of 135 to 136 °C. The molecule `N#CCCc1cc(F)c2ncc(C(=O)NCc3ccc(Cl)cc3)c(O)c2c1` showed a melting point of 273 to 274 °C. The figure for `O=S(=O)(c1ccc(Cl)cc1)C(CCl)Sc1ccc(Br)cc1` (stereo not given) is 76 to 78 °C.

As to `N#Cc1ccc(N2C=CC(N)=C([N+](=O)[O-])C2)cc1`, the melting point was 210 to 211 °C. The figure for `N[C@H]1CCN(c2ccc3c(C(=O)NCCc4ccccc4Cl)c(Cl)ccc3n2)C1` is 196 to 198 °C; for `CCCCN(CCCC)C(=O)Nc1ccccc1` it is 82 °C. Turning to `Nc1cccc(C(=O)OC2CCN(Cc3ccccc3)CC2)c1`, the melting point lay within 70 to 71 °C. The figure for `CC(C)[C@H](NS(=O)(=O)c1ccc2c(c1)Sc1ccccc1O2)C(=O)O` is 171 to 175 °C; for `O=C(NCc1cccnc1)c1ccc2n1Cc1ccccc1N(C(=O)c1ccc(-c3ccccc3CO)cc1)C2` it is 119 to 121 °C; for `O=C1CCC(N2Cc3c(OCc4cn5ccccc5n4)cccc3C2=O)C(=O)N1` (stereo not given) it is 222 to 224 °C. The figure for `CNS(=O)(=O)c1ccc(-c2cccc(-c3nc(C(C)C)[nH]c3-c3cccc(C)n3)c2)cc1` is 96 to 100 °C; for `CN(C(=O)Nc1nc(OCC(F)(F)F)cc(OCC(F)(F)F)n1)c1ccc(OC(F)(F)F)cc1` it is 100 to 102 °C; for `CC(C)c1cc(OCC(=O)O)cc2c1C(=O)N(COC(=O)c1c(Cl)cccc1Cl)S2(=O)=O` it is 136 to 137 °C. In the case of `Nc1c(F)c(N2CCC3(CC3N)C2)c(F)c2c1c(=O)c(C(=O)O)cn2[C@@H]1C[C@@H]1F` (stereo not given in full), the melting point was in the range of 180 to 181 °C. `COc1cc(OC)c(C(C)=O)c(O)c1CCC(C)C` gave a melting point of 100 °C. The figure for `CCN1CN2C(=N1)C(c1ccccc1Cl)=NCC1=C2S(=O)C(C(=O)NC)C1` (stereo not given) is 193 to 194 °C; for `CC(=O)Nc1[nH]cc(-c2ccc(NS(=O)(=O)c3cccc(Cl)c3Cl)cc2)c1C(N)=O` it is 265 °C; for `CCCCCOC(=O)CCNCC(O)COc1ccccc1C#N` (stereo not given) it is 91 °C. The figure for `CC[C@H]1COC(=O)N1c1cc(C)nc(Oc2c(C)cc(Cl)cc2C)c1C(=O)OC` is 144 to 146 °C.
